{"source": "patent EP2578588A1", "about": "(World-Trade Import-Export Wtie, AG, priority 2010, dated 2011)", "biological_target": "enzyme PDE-5 (Homo sapiens, UniProt O76074)", "assay": "Phosphodiesterase 5 (PDE-5) inhibition activity in in vitro tests", "assay_type": "biochemical", "settings": "read-out: CI5C", "source_text": "The following data illustrate the inhibiting activity of the compounds of the present invention on the enzyme PDE-5.", "note": "pIC50: −log10 of the molar value.", "data": [{"smiles": "CCCc1nn(C)c2c(=O)[nH]c(-c3cc(S(=O)(=O)N4CCCNCC4)ccc3OCC)nc12", "note": "[Compound 1, 5-(5-(1,4-diazepan-1-ylsulfonyl)-2-ethoxiphenyl)-1-methyl-3-propyl-1H-pyrazolo[4,3-d]pyrimidin-7(6H)-one]", "values": [{"measurement": "pIC50", "result": 8.38}]}, {"smiles": "CCCc1nn(C)c2c(=O)[nH]c(-c3cc(S(=O)(=O)N4CCCN(C(C)=O)CC4)ccc3OCC)nc12", "note": "[Compound 2, 5-(5-(4-acetyl-1,4-diazepan-1-ylsulfonyl)-2-ethoxyphenyl)-1-methyl-3-propyl-1H-pyrazolo[4,3-d]pyrimidin-7(6H)-one]", "values": [{"measurement": "pIC50", "result": 8.19}]}, {"smiles": "CCCc1nn(C)c2c(=O)[nH]c(-c3cc(S(=O)(=O)N4CCCN(C)CC4)ccc3OCC)nc12", "note": "[Compound 3, 5-(2-ethoxy-5-(4-methyl-1,4-diazepan-1-ylsulfonyl)phenyl)-1-methyl-3-propyl-1H-pyrazolo[4,3-d]pyrimidin-7(6H)-one]", "values": [{"measurement": "pIC50", "result": 8.55}]}, {"smiles": "CCCc1nn(C)c2c(=O)[nH]c(-c3cc(S(=O)(=O)N4CCCN(CCCO)CC4)ccc3OCC)nc12", "note": "[Compound 4]", "values": [{"measurement": "pIC50", "result": 8.74}]}, {"smiles": "CCCc1nn(C)c2c(=O)[nH]c(-c3cc(S(=O)(=O)N4CCCN(C(=O)OC(C)(C)C)CC4)ccc3OCC)nc12", "note": "[Compound 5, tert-butyl 4-(4-ethoxy-3-(1-methyl-7-oxo-3-propyl-6,7-dihydro-1H-pyrazolo[4,3-d]pyrimidin-5-yl)phenylsulfonyl)-1,4-diazepane-1-carboxylate]", "values": [{"measurement": "pIC50", "result": 8.46}]}, {"smiles": "CCCc1nn(C)c2c(=O)[nH]c(-c3cc(S(=O)(=O)N4CCCN(C)CC4)cnc3OCC)nc12", "note": "[Compound 6, 5-(2-ethoxy-5-(4-methyl-1,4-diazepan-1-ylsulfonyl)pyridin-3-yl)-1-methyl-3-propyl-1H-pyrazolo[4,3-d] pyrimidin-7(6H)-one]", "values": [{"measurement": "pIC50", "result": 8.66}]}, {"smiles": "CCCc1nn(C)c2c(=O)[nH]c(-c3cc(S(=O)(=O)N4CCCN(CCC(=O)O)CC4)ccc3OCC)nc12", "note": "[Compound 7]", "values": [{"measurement": "pIC50", "result": 8.92}]}]}
